Where a SMILES comes first, the peptide text is derived from it. Where no end group is shown, it is not given here. [ ]: non-standard residue; d: D form.

The results in this text go back to paper PMC12266337 (Biochemistry, 2025).

The target of the first assay is T1, ComD receptor (Streptococcus constellatus, UniProt O33616). In words: Luciferase reporter activation. It is filed as cell-based.
Settings: not given
(In a reporter assay the amount or activity of a reporter protein is the signal.)
Broadly, the EC50 is the midpoint of the concentration-response curve. Regarding `CC[C@H](C)[C@H](NC(=O)[C@H](CCCNC(=N)N)NC(=O)[C@H](CO)NC(=O)[C@@H](N)CC(=O)O)C(=O)N[C@H](CCCNC(=N)N)C(=O)N[C@@H](CCSC)C(=O)NCC(=O)N[C@@H](Cc1ccccc1)C(=O)N[C@@H](CC(=O)O)C(=O)N[C@@H](Cc1ccccc1)C(=O)N[C@@H](CO)C(=O)N[C@@H](CCCCN)C(=O)N[C@@H](CC(C)C)C(=O)N[C@@H](Cc1ccccc1)C(=O)NCC(=O)N[C@@H](CCCCN)C(=O)O` [CSP-r5] (H-DSRI[dR]MGFDFSKLFGK-OH), a half-maximal effect (EC50) was put at 47 nM. In turn, `CC[C@H](C)[C@H](NC(=O)[C@H](CCCNC(=N)N)NC(=O)[C@@H](CO)NC(=O)[C@@H](N)CC(=O)O)C(=O)N[C@@H](CCCNC(=N)N)C(=O)N[C@@H](CCSC)C(=O)NCC(=O)N[C@@H](Cc1ccccc1)C(=O)N[C@@H](CC(=O)O)C(=O)N[C@@H](Cc1ccccc1)C(=O)N[C@@H](CO)C(=O)N[C@@H](CCCCN)C(=O)N[C@@H](CC(C)C)C(=O)N[C@@H](Cc1ccccc1)C(=O)NCC(=O)N[C@@H](CCCCN)C(=O)O` [CSP-s2] (H-D[dS]RIRMGFDFSKLFGK-OH) showed an EC50 of 7.9 nM. Still for that read-out and setting: under DSRIAMGFDFSKLFGK [CSP R5A] stands 4.8 nM. Molecule DARIRMGFDFSKLFGK [CSP S2A] yielded a concentration for a half-maximal effect (EC50) of 5.6 nM. Same read-out and setting: the value for `CC[C@H](C)[C@H](NC(=O)[C@H](CCCNC(=N)N)NC(=O)[C@H](CO)NC(=O)[C@H](N)CC(=O)O)C(=O)N[C@@H](CCCNC(=N)N)C(=O)N[C@@H](CCSC)C(=O)NCC(=O)N[C@@H](Cc1ccccc1)C(=O)N[C@@H](CC(=O)O)C(=O)N[C@@H](Cc1ccccc1)C(=O)N[C@@H](CO)C(=O)N[C@@H](CCCCN)C(=O)N[C@@H](CC(C)C)C(=O)N[C@@H](Cc1ccccc1)C(=O)NCC(=O)N[C@@H](CCCCN)C(=O)O` [CSP-d1] (H-[dD]SRIRMGFDFSKLFGK-OH) was 9.7 nM. The same measure, in the same setting: the value for `CC[C@H](C)[C@H](NC(=O)[C@H](CCCNC(=N)N)NC(=O)[C@H](CO)NC(=O)[C@@H](N)CC(=O)O)C(=O)N[C@@H](CCCNC(=N)N)C(=O)N[C@H](CCSC)C(=O)NCC(=O)N[C@@H](Cc1ccccc1)C(=O)N[C@@H](CC(=O)O)C(=O)N[C@@H](Cc1ccccc1)C(=O)N[C@@H](CO)C(=O)N[C@@H](CCCCN)C(=O)N[C@@H](CC(C)C)C(=O)N[C@@H](Cc1ccccc1)C(=O)NCC(=O)N[C@@H](CCCCN)C(=O)O` [CSP-m6] (H-DSRIR[dM]GFDFSKLFGK-OH) was 35 nM; that for `CC[C@@H](C)[C@@H](NC(=O)[C@H](CCCNC(=N)N)NC(=O)[C@H](CO)NC(=O)[C@@H](N)CC(=O)O)C(=O)N[C@@H](CCCNC(=N)N)C(=O)N[C@@H](CCSC)C(=O)NCC(=O)N[C@@H](Cc1ccccc1)C(=O)N[C@@H](CC(=O)O)C(=O)N[C@@H](Cc1ccccc1)C(=O)N[C@@H](CO)C(=O)N[C@@H](CCCCN)C(=O)N[C@@H](CC(C)C)C(=O)N[C@@H](Cc1ccccc1)C(=O)NCC(=O)N[C@@H](CCCCN)C(=O)O` [CSP-i4] (H-DSR[dI]RMGFDFSKLFGK-OH) was 25 nM; that for `CC[C@H](C)[C@H](NC(=O)[C@H](CCCNC(=N)N)NC(=O)[C@H](CO)NC(=O)[C@@H](N)CC(=O)O)C(=O)N[C@@H](CCCNC(=N)N)C(=O)N[C@@H](CCSC)C(=O)NCC(=O)N[C@@H](Cc1ccccc1)C(=O)N[C@@H](CC(=O)O)C(=O)N[C@@H](Cc1ccccc1)C(=O)N[C@@H](CO)C(=O)N[C@@H](CCCCN)C(=O)N[C@H](CC(C)C)C(=O)N[C@@H](Cc1ccccc1)C(=O)NCC(=O)N[C@@H](CCCCN)C(=O)O` [CSP-l13] (H-DSRIRMGFDFSK[dL]FGK-OH) was 25 nM. Consider `CC[C@H](C)[C@H](NC(=O)[C@@H](CCCNC(=N)N)NC(=O)[C@H](CO)NC(=O)[C@@H](N)CC(=O)O)C(=O)N[C@@H](CCCNC(=N)N)C(=O)N[C@@H](CCSC)C(=O)NCC(=O)N[C@@H](Cc1ccccc1)C(=O)N[C@@H](CC(=O)O)C(=O)N[C@@H](Cc1ccccc1)C(=O)N[C@@H](CO)C(=O)N[C@@H](CCCCN)C(=O)N[C@@H](CC(C)C)C(=O)N[C@@H](Cc1ccccc1)C(=O)NCC(=O)N[C@@H](CCCCN)C(=O)O` [CSP-r3] (H-DS[dR]IRMGFDFSKLFGK-OH), for which the EC50 came out at 13 nM. The same measure, in the same setting: under “DSRIRMGFDFSKLFGK [Native CSP, reference compound]” stands 5.2 nM. `CC[C@H](C)[C@H](NC(=O)[C@H](CCCNC(=N)N)NC(=O)[C@H](CO)NC(=O)[C@@H](N)CC(=O)O)C(=O)N[C@@H](CCCNC(=N)N)C(=O)N[C@@H](CCSC)C(=O)NCC(=O)N[C@@H](Cc1ccccc1)C(=O)N[C@@H](CC(=O)O)C(=O)N[C@@H](Cc1ccccc1)C(=O)N[C@@H](CO)C(=O)N[C@@H](CCCCN)C(=O)N[C@@H](CC(C)C)C(=O)N[C@@H](Cc1ccccc1)C(=O)NCC(=O)N[C@H](CCCCN)C(=O)O` [CSP-k16] (H-DSRIRMGFDFSKLFG[dK]-OH) yielded a half-maximal effective concentration (EC50) of 1.7 nM. Consider DSRIRAGFDFSKLFGK [CSP M6A], for which the 50% effective concentration (EC50) worked out at 1.9 nM.

For DSRIRMGFDFSKLFGA [CSP K16A], the response was half-maximal at 2.5 nM (EC50). In turn, `CC[C@H](C)[C@H](NC(=O)[C@H](CCCNC(=N)N)NC(=O)[C@H](CO)NC(=O)[C@@H](N)CC(=O)O)C(=O)N[C@@H](CCCNC(=N)N)C(=O)N[C@@H](CCSC)C(=O)NCC(=O)N[C@@H](Cc1ccccc1)C(=O)N[C@@H](CC(=O)O)C(=O)N[C@@H](Cc1ccccc1)C(=O)N[C@@H](CO)C(=O)N[C@H](CCCCN)C(=O)N[C@@H](CC(C)C)C(=O)N[C@@H](Cc1ccccc1)C(=O)NCC(=O)N[C@@H](CCCCN)C(=O)O` [CSP-k12] (H-DSRIRMGFDFS[dK]LFGK-OH) returned a half-maximal effective concentration (EC50) of 3.7 nM. Still for that read-out and setting: under `CC[C@H](C)[C@H](NC(=O)[C@H](CCCNC(=N)N)NC(=O)[C@H](CO)NC(=O)[C@@H](N)CC(=O)O)C(=O)N[C@@H](CCCNC(=N)N)C(=O)N[C@@H](CCSC)C(=O)NCC(=O)N[C@@H](Cc1ccccc1)C(=O)N[C@@H](CC(=O)O)C(=O)N[C@@H](Cc1ccccc1)C(=O)N[C@@H](CO)C(=O)N[C@@H](CCCCN)C(=O)N[C@@H](CC(C)C)C(=O)N[C@H](Cc1ccccc1)C(=O)NCC(=O)N[C@@H](CCCCN)C(=O)O` [CSP-f14] (H-DSRIRMGFDFSKL[dF]GK-OH) stands 2 nM; under DSRARMGFDFSKLFGK [CSP I4A], 0.089 nM.

The assay is the same for the next values; noted with them: ΔcomC PcomX::luc reporter, agonism screening.
On to DSAIRMGFDFSKLFGK [CSP R3A], for which the “QS activation (result in words)” value is listed as “complete loss of function”. For the molecule DSRIRMGFDFSKLAGK [CSP F14A], the “QS activation (result in words)” value is “abolished QS activation”.

The next assay deals with T1, ComD receptor.
Assay: not given
It is filed as cell-based.
Settings: not given
The IC50 is the concentration needed to halve the response being measured. The molecule ASRIRMGFDFSKLFGK [CSP D1A] came in with an IC50 of 120 nM.
